Assay results reported in publication PMC11678766, “Identification of Novel Inhibitors of Starch Excess 4 (SEX4)” (Life, 2024).

What was measured:
Format in all cases: biochemical
[1] = target: T1, SEX4 (Arabidopsis thaliana, UniProt Q9FEB5); assay: Phosphatase assay against amylopectin, SEX4; settings: for Inhibition model, amylopectin assay, SEX4: determined by steady-state kinetic measurements; for Selectivity between SEX4 and LSF2: comparison of IC50 values for SEX4 and LSF2
T1 construct: gift from Dr. Gentry's group, University of Kentucky College of Medicine
T1 sequence (Q9FEB5 90-379 limits assumed): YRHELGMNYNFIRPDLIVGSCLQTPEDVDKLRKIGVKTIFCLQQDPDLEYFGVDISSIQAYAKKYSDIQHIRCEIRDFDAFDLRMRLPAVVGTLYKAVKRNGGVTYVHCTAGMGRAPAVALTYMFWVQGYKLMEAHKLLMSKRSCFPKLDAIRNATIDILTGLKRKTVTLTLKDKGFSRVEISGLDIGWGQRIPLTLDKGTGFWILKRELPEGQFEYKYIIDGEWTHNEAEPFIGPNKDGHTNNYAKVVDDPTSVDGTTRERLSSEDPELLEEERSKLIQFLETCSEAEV
Protocol: (§1) The Arabidopsis thaliana SEX4 lacking the first 89 amino acids (Δ89-SEX4) and LSF2 proteins were kindly provided by Dr. Gentry’s group at the University of Kentucky College of Medicine (Lexington, KY, USA). para-nitrophenyl phosphate disodium salt hexahydrate (pNPP), Malachite green oxalate salt, ammonium molybdate tetrahydrate, and amylopectin from potato starch were purchased from Sigma-Aldrich. Absorbance was measured on a Beckman Coulter (Brea, CA, USA) DU 700 Series UV/Vis Spectrophotometer.
(§2) The phosphatase activity of SEX4 or LSF2 toward amylopectin in the absence or presence of an inhibitor was measured in a reaction mixture with 2 μg SEX4 or LSF2 at 37 °C in 20 μL volume. The reaction mixture contained 100 mM sodium acetate, 50 mM bis-Tris, 50 mM Tris (pH 6.5), 10 mM DTT, and 45 μg amylopectin with or without an inhibitor. […] The release of free inorganic phosphate was determined by measuring the absorbance at 620 nm and the K2HPO4 standard curve.
(§3) The steady-state kinetic parameters were determined by varying substrate concentrations (pNPP 0.5–50 mM; amylopectin 5–45 μg) with or without an inhibitor. The data were fitted by nonlinear regression to the Michaelis–Menten equation using GraphPad PRISM 9.0 software to derive KM and kcat values. […] Inhibition constants (Ki) and inhibition types were determined by varying substrate concentrations in the absence of an inhibitor and in the presence of an inhibitor at the IC50 concentration.
(§4) The process of finding an inhibitor proceeded as follows (Figure 1). […] Then, reproduction experiments were performed with these compounds to select candidate substances. […] In order to assess any difference in selectivity between SEX4 and LSF2 for the selected candidates, the IC50 values of LSF2 were obtained through the pNPP and amylopectin assays and compared with those of SEX4.
(§5) The IC50 values were calculated directly from regression curves using GraphPad PRISM software. The IC50 graph was fitted to the Logistic Equation.

[2] = target: T2, LSF2 (Arabidopsis thaliana, UniProt Q9SRK5); assay: Phosphatase assay against pNPP, LSF2
T2 construct: gift from Dr. Gentry's group, University of Kentucky College of Medicine
Protocol: as §1
(§6) The phosphatase activity of SEX4 or LSF2 against pNPP in the presence or absence of an inhibitor was measured in this assay. The reaction (20 μL of total volume) of A. thaliana SEX4 or LSF2 was performed in the reaction mixture containing 1~2 μg SEX4 or LSF2, 1X assay buffer pH 5.5 (20 mM sodium acetate, 10 mM bis-Tris, 10 mM Tris, pH with HCl), 5 mM Dithiothreitol (DTT), and 50 mM pNPP (Sigma-Aldrich, Wien, Austria). It was incubated at 37 °C for 10 min with or without an inhibitor. The reaction was terminated by adding 80 μL of 0.25 N NaOH, and absorbance was measured at 410 nm.
as §3, §4

[3] = target: T1, SEX4; assay: Phosphatase assay against pNPP, SEX4; settings: for Inhibition model, pNPP assay, SEX4: determined by steady-state kinetic measurements
Protocol: as §1, §6, §3, §4, §5

[4] = target: T2, LSF2; assay: Phosphatase assay against amylopectin, LSF2
Protocol: as §1, §2, §3, §4

[5] = 45 μg amylopectin, inhibitor 0–0.2 mM, average ± standard error of three measurements, read-out: IC50, amylopectin assay, SEX4
[6] = amylopectin 5–45 μg, inhibitor at IC50 concentration, average ± standard error of three measurements, read-out: Ki, amylopectin assay, SEX4
[7] = average ± standard error of three measurements, read-out: IC50, pNPP assay, LSF2
[8] = 50 mM pNPP, inhibitor 0–0.2 mM, average ± standard error of three measurements, read-out: IC50, pNPP assay, SEX4
[9] = pNPP 0.5–50 mM, inhibitor at IC50 concentration, average ± standard error of three measurements, read-out: Ki, pNPP assay, SEX4
[10] = not determined with the maximum concentration of candidate compounds, read-out: IC50, amylopectin assay, LSF2

T2 sequence (Q9SRK5 62-282): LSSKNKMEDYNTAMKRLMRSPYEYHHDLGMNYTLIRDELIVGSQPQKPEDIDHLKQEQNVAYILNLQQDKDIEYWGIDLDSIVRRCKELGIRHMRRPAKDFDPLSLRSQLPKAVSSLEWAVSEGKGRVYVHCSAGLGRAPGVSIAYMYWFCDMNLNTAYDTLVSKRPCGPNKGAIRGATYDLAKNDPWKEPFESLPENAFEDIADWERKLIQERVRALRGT

Row | Compound | IC50 [1, 5] [µM] | Ki [1, 6] [µM] | Inhibition model, amylopectin assay, SEX4 [1] | IC50 [2, 7] [µM] | IC50 [3, 8] [µM] | Inhibition model, pNPP assay, SEX4 [3] | Ki [3, 9] [µM] | IC50 [4, 10] [µM] | IC50 [3] [µM] | IC50 for SEX4 compared with that of LSF2, pNPP assay ([3]; SEX4 vs LSF2) | IC50 [1] [µM] | Ki [1] [µM] | Selectivity between SEX4 and LSF2 [1] | IC50 [4] [µM] | IC50 [2] [µM] | Ki [3] [µM] | IC50 ([1]; read-out: IC50, amylopectin assay, SEX4) [µM] | Ki ([1]; read-out: Ki, amylopectin assay, SEX4) [µM] | IC50 ([3]; read-out: IC50, pNPP assay, SEX4) [µM] | Ki ([3]; read-out: Ki, pNPP assay, SEX4) [µM]
1 | CCCc1c(O)nc2[nH]c(=O)sc2c1C [Compound D04, Thiazolo[4,5-b]pyridin-2(3H)-one, 5-hydroxy-7-methyl-6-propyl] | 57.33 ± 0.34 | 28.31 ± 0.014 | Competitive | 44.82 ± 0.022 | 21.6 ± 0.008 | Uncompetitive | 25.41 ± 0.012 |  |  |  |  |  |  |  |  |  |  |  |  | 
2 | CCCCCC/C=C\CCCCCCCc1cccc(O)c1C(=O)O [Compound F05, Ginkgolic acid] | 21.1 ± 0.021 | 20.81 ± 0.021 | Uncompetitive | 21.26 ± 0.008 |  | Uncompetitive | 6.87 ± 0.007 | > 50 | 5.18 ± 0.014 | approximately four times lower |  |  |  |  |  |  |  |  |  | 
3 | O=C1C=CC(=O)c2c(O)ccc(O)c21 [Compound F09, Naphthazarin] |  |  | Uncompetitive |  |  | Mixed-model |  |  | 15.83 ± 0.018 |  | 7.49 ± 0.016 | 16.42 ± 0.012 | selective for SEX4 | > 50 | 23.97 ± 0.028 | 39.81 ± 0.026 |  |  |  | 
4 | O=C(OCC1OC(OC(=O)c2cc(O)c(O)c(O)c2)C(OC(=O)c2cc(O)c(O)c(O)c2)C(OC(=O)c2cc(O)c(O)c(O)c2)C1OC(=O)c1cc(O)c(O)c(O)c1)c1cc(O)c(O)c(O)c1 [Compound G07, Penta-O-gallolyl-β-D-glucose] |  |  |  | 13.39 ± 0.036 |  |  |  | > 50 |  |  |  |  |  |  |  |  | 38.61 ± 0.022 | 46.4 ± 0.032 | 30.91 ± 0.021 | 37.31 ± 0.026
5 | O=C(O)c1cc(O)c2c(c1)[C@@H]([C@@H]1c3cc(C(=O)O)cc(O)c3C(=O)c3c(OC4OC(CO)C(O)C(O)C4O)cccc31)c1cccc(OC3OC(CO)C(O)C(O)C3O)c1C2=O (stereo partly shown) [Compound G11, Sennoside] | 9.72 ± 0.008 | 7.81 ± 0.005 | Competitive | 23.03 ± 0.029 | 25.75 ± 0.017 | Uncompetitive | 33.87 ± 0.019 | > 50 |  |  |  |  | selective for SEX4 |  |  |  |  |  |  | 
6 | Cc1c(O)nc2[nH]c(=O)sc2c1C [Compound H03, Thiazolo[4,5-b]pyridin-2(3H)-one, 5-hydroxy-6,7-dimethyl] | 13.05 ± 0.024 | 29.84 ± 0.025 | Competitive | 49.58 ± 0.047 | 39.58 ± 0.016 | Uncompetitive | 42.34 ± 0.037 |  |  |  |  |  |  |  |  |  |  |  |  | 
7 | CC(C)=CCc1c(-c2ccc(O)cc2O)oc2c(C3C=C(C)CC(C(=O)c4ccc(O)cc4O)C3c3ccc(O)cc3O)c(O)cc(O)c2c1=O (stereo not shown) [Compound H08, Moracenin B] | 16.49 ± 0.051 | 31.12 ± 0.027 | Uncompetitive | 22.92 ± 0.025 | 18.69 ± 0.026 | Uncompetitive | 20.84 ± 0.023 | > 50 |  |  |  |  |  |  |  |  |  |  |  | 
